Two compounds from PMC6620326, “Structural characterization of life-extending Caenorhabditis elegans Lipid Binding Protein 8” (Scientific Reports, 2019) can be followed below.

In assay [1] the target is T1, LBP-8 (Caenorhabditis elegans, UniProt O02324).
T1 construct: full-length residues 1-137, pMCSG7 His6-TEV, E. coli BL21(DE3); His tag cleaved by TEV
T1 sequence (O02324 1-137): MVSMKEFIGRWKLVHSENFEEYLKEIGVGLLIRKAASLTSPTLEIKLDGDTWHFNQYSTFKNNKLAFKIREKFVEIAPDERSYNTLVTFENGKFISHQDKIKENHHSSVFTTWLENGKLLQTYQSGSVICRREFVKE
Kind of assay: […],8-ANS fluorescence displacement. Conditions: PBS pH 8.0, 37 °C, 250 nM protein, 800 nM 1,8-ANS, 1% ethanol; refolded delipidated protein; competitive with 1,8-ANS. Type of assay: binding.

Assay [2] deals with T1, LBP-8. Kind of assay: differential scanning fluorimetry, SYPRO orange. The note with it: 20 µM ligand, 7 µM refolded protein, 1% ethanol; destabilising shift. The class given is binding. For orientation: Differential scanning fluorimetry follows unfolding on heating by fluorescence.

For the compound `CCCCCCCC/C=C\CCCCCCCC(=O)O` [OA, oleic acid], on LBP-8 [1], the Ki entry was “oleic acid and OEA, and both had very similar Ki’s”. For the same compound, the “decrease in Tm vs apo” value at LBP-8 [2] is ~ 4 °C.
Regarding `CCCCCCCC/C=C\CCCCCCCC(=O)NCCO` [OEA, oleoylethanolamide], the Ki result at LBP-8 [1] is “oleic acid and OEA, and both had very similar Ki’s”.
